Test results from patent US6413782B1, “Methods of manufacturing high-throughput screening systems” (priority 1996, dated 2002).

Molecular target: β-galactosidase (Escherichia coli, UniProt P00722)
Assay: Enzyme inhibitor screen in planar chip format (continuous flow, fluorogenic substrate FDG)
Format: biochemical
Conditions: IPTG 200 mM in inhibitor well; β-Galactosidase 180 U/ml; substrate FDG 400 μM; 20 mM Tris pH 8.5; versus buffer control
Description: The numbers adjacent the channels represent the lengths of each channel in millimeters. Two voltage states were applied to the ports of the chip. […] A control experiment was also run in which buffer was placed into the inhibitor well.
Enzyme: β-Galactosidase (180 U/ml in 50 mM Tris/ 300 μg/ml BSA
Substrate: Fluorescein-digalactoside (FDG) 400 μM
Buffer: 20 mM Tris, pH 8.5
Enzyme and substrate were continually pumped through the main channel from their respective ports under both voltage states. Inhibitor or Buffer were delivered into the main channel alternately from their respective wells by alternating between voltage state 1 and voltage state 2. When no inhibitor was present at the detection end of the main channel, a base line level of fluorescent product was produced. […] FIG. 9B a superposition of the two data segments from FIG. 9A, directly comparing the inhibitor data with control (buffer) data.

Chain of β-galactosidase (P00722 2-1024): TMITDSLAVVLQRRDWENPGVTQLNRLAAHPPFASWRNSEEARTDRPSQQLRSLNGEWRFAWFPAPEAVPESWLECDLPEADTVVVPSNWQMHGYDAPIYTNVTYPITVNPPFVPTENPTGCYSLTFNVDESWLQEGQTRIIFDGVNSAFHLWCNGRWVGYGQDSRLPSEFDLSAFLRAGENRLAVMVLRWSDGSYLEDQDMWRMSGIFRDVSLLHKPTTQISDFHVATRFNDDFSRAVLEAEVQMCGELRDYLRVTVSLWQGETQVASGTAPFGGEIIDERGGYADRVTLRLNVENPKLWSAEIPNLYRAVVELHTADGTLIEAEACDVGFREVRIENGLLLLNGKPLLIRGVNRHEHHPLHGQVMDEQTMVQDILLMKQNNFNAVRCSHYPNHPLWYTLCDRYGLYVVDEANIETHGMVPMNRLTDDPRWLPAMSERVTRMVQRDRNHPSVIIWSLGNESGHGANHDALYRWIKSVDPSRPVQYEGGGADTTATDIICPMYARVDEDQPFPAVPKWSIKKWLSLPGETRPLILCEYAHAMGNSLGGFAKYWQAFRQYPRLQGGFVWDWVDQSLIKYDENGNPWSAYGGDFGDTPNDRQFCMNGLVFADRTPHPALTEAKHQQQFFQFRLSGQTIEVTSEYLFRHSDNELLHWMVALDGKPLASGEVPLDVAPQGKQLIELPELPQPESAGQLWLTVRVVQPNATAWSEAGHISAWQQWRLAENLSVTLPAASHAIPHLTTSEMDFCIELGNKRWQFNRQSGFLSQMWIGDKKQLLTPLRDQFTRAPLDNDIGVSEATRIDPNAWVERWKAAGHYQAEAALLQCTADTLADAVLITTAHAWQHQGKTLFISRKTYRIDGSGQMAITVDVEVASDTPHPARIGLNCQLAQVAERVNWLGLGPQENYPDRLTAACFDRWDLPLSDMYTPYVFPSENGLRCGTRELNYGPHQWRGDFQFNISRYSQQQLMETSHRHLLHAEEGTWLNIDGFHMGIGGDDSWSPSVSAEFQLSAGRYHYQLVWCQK

CC(C)S[C@@H]1O[C@H](CO)[C@H](O)[C@H](O)[C@H]1O [IPTG]
fluorescent signal upon introduction of inhibitor (inhibition of the enzyme/substrate interaction): greatly reduced
